Data reported in patent US9675549B2, “Tablet containing composite with cyclodextrin” (AMBIT BIOSCIENCES CORPORATION, priority 2012, dated 2017).

Assay: Examination of molecular state of AC220 in aqueous solution (1H chemical shift displacements, NOESY)
Format: physicochemical
Description: The molecular state of AC220 in the aqueous solution was examined. […] The protons of d and e could not be analyzed due to the overlapping with other proton signals.
Furthermore, the Hill coefficient was calculated from the analysis of the ^1H chemical shift displacements: the value was greater than 1, and indicated a network formation. It was confirmed that the addition of methanol to the AC220 aqueous solution inhibited the gel formation, and that the network was formed by intermolecular hydrogen bonding.

## CC(C)(C)c1cc(NC(=O)Nc2ccc(-c3cn4c(n3)sc3cc(OCCN5CCOCC5)ccc34)cc2)no1 [AC220, N-(5-tert-butyl-isoxazol-3-yl)-N′-{4-[7-(2-morpholin-4-yl-ethoxy)imidazo[2,1-b][1,3]benzothiazol-2-yl]phenyl}urea]
Calculated from 1H chemical shift displacements of AC220 aqueous solutions, indicates network formation
  Hill coefficient: greater than 1
Gelation of the aqueous solution with increasing concentration
  Solubility in water: soluble
